According to patent US20060084704A1, “Methods and compositions for enhancing degradation of nuclear receptor transcription factors and uses thereof” (priority 2004, published 2006):

Experiments:
[1] = target: T1, AR (Homo sapiens, UniProt P10275, T878A); type: cell-based; settings: LNCaP, JC9 5 micromolar about 20 hours, then cycloheximide 15 micrograms/milliliter
T1 construct: LNCaP cells express an endogenous mutant AR that is found in prostate cancer patients; host or cells: LNCaP
T1 sequence (P10275 1-920 T878A): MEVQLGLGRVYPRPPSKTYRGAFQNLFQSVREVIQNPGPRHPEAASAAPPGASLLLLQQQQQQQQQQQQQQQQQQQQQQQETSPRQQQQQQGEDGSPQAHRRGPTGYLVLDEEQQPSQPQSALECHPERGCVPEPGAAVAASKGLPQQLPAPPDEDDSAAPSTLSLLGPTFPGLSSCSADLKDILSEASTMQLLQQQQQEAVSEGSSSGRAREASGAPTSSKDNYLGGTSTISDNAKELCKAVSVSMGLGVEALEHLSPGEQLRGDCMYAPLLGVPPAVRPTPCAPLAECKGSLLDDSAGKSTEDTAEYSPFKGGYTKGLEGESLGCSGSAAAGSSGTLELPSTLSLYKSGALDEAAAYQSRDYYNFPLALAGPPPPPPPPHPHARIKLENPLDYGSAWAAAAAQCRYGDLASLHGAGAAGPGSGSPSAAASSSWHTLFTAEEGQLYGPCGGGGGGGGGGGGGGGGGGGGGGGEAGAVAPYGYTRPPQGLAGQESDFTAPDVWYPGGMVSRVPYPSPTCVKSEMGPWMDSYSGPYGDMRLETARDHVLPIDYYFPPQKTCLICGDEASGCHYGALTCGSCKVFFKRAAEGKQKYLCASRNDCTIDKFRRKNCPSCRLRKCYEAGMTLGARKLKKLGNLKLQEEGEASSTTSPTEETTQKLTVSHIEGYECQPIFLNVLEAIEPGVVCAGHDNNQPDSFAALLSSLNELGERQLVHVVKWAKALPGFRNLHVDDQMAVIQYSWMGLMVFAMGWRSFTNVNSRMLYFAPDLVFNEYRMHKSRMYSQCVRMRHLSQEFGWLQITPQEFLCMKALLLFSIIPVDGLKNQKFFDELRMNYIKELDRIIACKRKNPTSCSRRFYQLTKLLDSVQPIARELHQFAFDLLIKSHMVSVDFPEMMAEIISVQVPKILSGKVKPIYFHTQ
Procedure: To determine whether the observed reduction of AR protein levels was due to protein degradation rather than inhibition of AR protein synthesis, a second set of three replicate experiments was performed. […] In the absence of new AR protein synthesis, any alterations in AR levels would be mainly attributable to protein degradation. LNCaP cells were cultured, and incubated with JC9 (5 micromolar) for about 20 hours.

[2] = target: T1, AR; assay: Western blot analysis of AR expression in JC9-treated LNCaP cells over 5 days; type: cell-based
Excerpt: A Western blot method suitable for detecting degradation of the androgen receptor (AR) has been previously described (Su et al., 1999). Briefly, cells (for example, LNCap cells) are harvested either in 2× sodium dodecyl sulfate (SDS) loading buffer or in radioimmunoprecipitation assay (RIPA) lysis buffer (see “Antibodies: A Laboratory Manual”, E. Harlow and D. Lane, Cold Spring Harbor Laboratory, 1988) containing 10 micrograms/milliliter of benzamidine, 10 micrograms/milliliter of trypsin inhibitor, and 1 millimolar of phenylmethylsulfonyl fluoride (PMSF). Total protein (40 micrograms/sample, or as desired) from cell lysate is separated on a SDS-PAGE gel. […] The membrane is rinsed with PBST, and a suitable visualization procedure is used to detect the secondary antibody (for example, horseradish peroxidase can be detected with a colorimetric substrate or by a chemiluminescent substrate such as that provided by the enhanced chemiluminescence (ECL Plus) kit from Amersham). […] Quantification of the protein signals can be carried out by densitometry, using appropriate software (ImageJ software from the National Institutes of Health).
AR is the key factor in regulating prostate cancer cells' response to androgens. […] A color detection method was subsequently employed to examine AR and actin protein signals in the membranes, and the resultant protein signals were quantitated by densitometry. […]

[3] = tested on: prostate-specific antigen (PSA); assay: Western blot of LNCaP cell lysates, PSA; type: cell-based, human; settings: 1 or 2 micromolar, 24 hours, presence or absence of DHT
Procedure: Human prostate cancer LNCaP cells and T47D cells were plated at a density of 7×10^5 cells per 60 millimeter tissue culture dish in […] (RPMI) medium containing 10% FBS. The medium was changed to RPMI or DME medium containing 10% charcoal-stripped serum 24 hours later to deplete cellular androgens or estrogens. After another 24 hours, treatment with the test compounds began. The test dose of JC15 was 1 or 2 micromolar and the test does of JC9 was 1, 5 and 10 micromolar. LNCap cells also received dihydrotestosterone (DHT) (3 nanomolar). Control cells received a corresponding amount of the vehicle, dimethylsulfoxide (DMSO) (<0.04%) for an equivalent exposure time. Cells were incubated with JC15 for 24 or 48 hours, and were lysed in 250 microliters of 1×SDS/PAGE loading buffer. Approximately 40 micrograms of total cellular protein was loaded in each lane of a pre-cast gel (NuPAGE, Invitrogen). Protein separation and transfer were performed following the manufacturer's instructions.
For the prostate cell lysates, androgen receptor (AR) protein was visualized by incubating the resultant membranes with an anti-AR antibody (BD-PharMingen), followed by chemiluminescence detection (ECL Plus, Amersham). […] The resultant protein signals were quantified using densitometry and NIH ImageJ software.

Row | Compound | time within which degradation of existing AR protein was enhanced [1] | time at which AR reduction was first observed ([2]; 5 μM JC9, continuous incubation) | AR level remaining (normalized AR signal, percentage of baseline Day 0) ([2]; 5 μM JC9, end of 5-day incubation) | PSA levels [3]
1 | COc1ccc(C=CC(=O)C=C(O)C=Cc2ccc(OC)c(OC)c2)cc1OC [JC9, 5-hydroxy-1,7-bis(3,4-dimethoxyphenyl)-1,4,6-heptatrien-3-one] | ≤ 4 h | 2 days | ~10% | –
2 | CCOC(=O)CCC(C(=O)C=Cc1ccc(O)c(OC)c1)C(=O)C=Cc1ccc(O)c(OC)c1 (stereo not shown) [JC15, 7-(4-hydroxy-3-methoxyphenyl)-4-[3-(4-hydroxy-3-methoxyphenyl)acryloyl]-5-oxo-hept-6-enoic acid ethyl ester] | – | – | – | decreased
